The values that follow come from patent US6710075B2, “Therapeutic compounds and methods” (The Government of the State of Sarawak, Malaysia, priority 2000, dated 2004).

As usually defined, the IC50 is the concentration at which inhibition is half-maximal. As a reminder, the GI50 is the concentration that inhibits growth by half.

Like-named read-outs stand apart in the source and are kept apart here.

Data set [1] deals with Tumour Necrosis Factor-α (TNF-α). Description: Inhibition of TNF-α production by LPS-activated THP-1 cells (sandwich ELISA). Format: cell-based, human. The following applies: 18 hours. From the text:
(§1) (a) Compounds A and B were identified from a bark sample of Aglaia leptantha through their ability to inhibit production of Tumour Necrosis Factor-α (TNF-α) by THP-1 human promonocytic leukemia cells (Tsuchiya, et al, Int. J. Cancer, 1980, 26(2):171-6) activated with lipopolysaccharide (LPS). Table 4 summarises the results comparing the activity of Compounds A and B for inhibition of TNF-α production to their effects on general cell metabolism measured using WST-1 reduction, DNA synthesis and protein synthesis assays for THP-1 cells. […] For comparison, the effects of Compounds A and B on A549 lung epithelial carcinoma cells (Leiber et al, Int. J. Cancer, 1976, 17(1)-62-70) were also measured and the data is also included in Table 4.

Data set [2] has as its system THP-1 cells. The experiment in a line: WST-1 reduction by THP-1 cells. Format: cell-based, human. The settings on record: Homo sapiens.
From the text: as §1
(Tetrazolium assays rely on reduction of a dye to a coloured formazan, in cell work by metabolically active cells.)

Data set [3] deals with THP-1 cells. The experiment in a line: Acute general protein biosynthesis inhibition, [14C] leucine incorporation, THP-1 cells. Format: cell-based, human. The settings on record: 1 hour pretreatment + 2 hours label, read-out: IC50 Protein synthesis.
Data set [4] has as its system THP-1 cells. The experiment in a line: Acute DNA synthesis inhibition, [14C] thymidine incorporation, THP-1 cells. Type of data set: cell-based, human. The following applies: 1 hour pretreatment + 2 hours label.
The test system of a further data set is A549. Description: Cytotoxic activity, sub-diploid DNA content by flow cytometry (propidium iodide). Format: cell-based, human. As for the experimental part:
(§2) (b) Compound A was assessed for cytotoxic and cytostatic activity against a panel of cell lines derived from a variety of human tumour types in addition to THP-1 and A549 cells (Table 5). These included K562 leukemic cells (Lozzio and Lozzio, 1975, Blood 45:321-34), PC3 prostate tumour cells (Kaighn et al., 1979, Invest. Urol. 17:16-23) and SF268 glioblastoma cells (Westphal et al, 1985, Biochem. Biophys. Res. Commun., 132:284-9). […] However, the cytotoxic potency of Compound A increased dramatically after 6 days of culture for the K562, A549 and SF268 cells.
On the technique in general: A flow cytometer gives signals particle by particle.

A further data set relates to K562. The description is as above. Type of data set: cell-based, human. On the procedure: as §2
The next data set relates to PC3. Described as above. The following applies: Homo sapiens. Format: cell-based, human. On the procedure: as §2
The test system of a further data set is SF268. The description is as above. Type of data set: cell-based, human. The settings on record: Homo sapiens, SF-268, 72 h, SF268, 3 days; read-out: LC50 (3 day cultures). As for the experimental part:
as §2

In another data set the test system is THP-1. The data set is described as above. Type of data set: cell-based, human. The settings on record: Homo sapiens, THP-1, 72 h, THP-1, 3 days; read-out: LC50 (3 day cultures). On the procedure:
as §2

For data set [5], the system named is panel of cell lines derived from a variety of human tumour types. The experiment in a line: Cytostatic activity against a panel of human tumour cell lines (summary). The settings on record: 72 h, range over the cell line panel, 3 days, read-out: GI50 values in nearly all cell lines tested. Type of data set: cell-based. On the procedure: as §2
Data set [6] concerns A549 cells. Description: Cell death as loss of membrane integrity, YOYO-1 uptake. Format: cell-based. The following applies: Homo sapiens, 72 h; A549 cells, 3 days, YOYO-1 uptake; read-out: LC50 (the source's name). The text has this: (§3) (a) Table 8 compares the cytostatic and cytotoxic effects of Compound A to three previously identified 1H-cyclopenta[b]benzofuran lignans that lack the dioxanyloxy group at the C6-position. The reference compounds are: Rocaglaol (Reference Compound 1) (Ohse et al., J Nat Prod, 1996, 59(7):650-52); 4′-Demethoxy-3′,4′-methylenedioxyrocaglaol (Reference Compound 2) and Methyl 4′-demethoxy-3′,4′-methylenedioxyrocaglate (Reference Compound 3) (Lee et al., Chem Biol Interact, 1998, 115(3):215-28).

The subject of data set [7] is THP-1 cells. Described as above. Type of data set: cell-based. The following applies: Homo sapiens, 72 h; THP-1 cells, 3 days, YOYO-1 uptake; read-out: LC50 (the source's name).
From the text: as §3

Data set [8] concerns THP-1 monocytic leukemia cells. The experiment in a line: Differentiation of THP-1 leukemic cells, morphology by phase contrast microscopy. Format: cell-based, human. The settings on record: THP-1, 10 nM, prolonged exposure (4 days). As for the experimental part: THP-1 cells were cultured for 4 days in the presence or absence of 10 nM Compound A as indicated. Where shown cells were also treated with IFNγ (100 ng/ml) (3 days) or with PMA (0.1 μM) (4 days) in the presence or absence of Compound A. Images are of cells visualised by phase contrast microscopy (magnification×200).
This is a morphology highly characteristic of mature macrophages and similar morphological effects were observed when the cells were treated with other known inducers of macrophage differentiation including interferon-γ (IFNγ) or phorbol 12-myristate 13-acetate (PMA). To investigate this further the effects of Compound A on HL60 human promyelocytic leukemic cells (Collins, et al, Nature, 1977, 270:347-9) were examined (Table 11). This widely used cell line is well characterised as a model of human myelomonocytic differentiation (Collins, Blood, 1987, 70(5):1233-44). In this experiment monocytic differentiation was quantitated by measuring CD14 surface antigen expression by flow cytometric analysis CD14, all LPS-binding protein, is expressed on the surface of cells of the myelomonocytic lineage and is normally expressed at very low levels in undifferentiated HL60 cells (Ferrero et al., Blood, 1983, 61(1):171-9).

Data set [9] deals with A549 cells. The experiment in a line: Senescence-associated β-galactosidase (SA-β-gal) activity staining. The following applies: A549, 10-50 nM, 10 days. Type of data set: cell-based, human. As for the experimental part:
A549 cells were seeded at 10,000 cell/well in 6 well plates in the presence or absence of varying concentrations of Compound A (10-50 nM) or 250 nM doxorubicin for 10 days prior to their processing and staining overnight for senescence-associated β-galactosidase activity as described previously (Dimri et al., 1995, Proc Natl Acad Sci USA 1995 92(20):9363-7). […] PC, phase contrast microscopy. BF, bright field microscopy Magnification×200.
This was evaluated further by measuring senescence-associated β-galactosidase (SA-β-gal) activity, a biomarker previously described to correlate well with senescence of human cells (Dimri et al., Proc Natl Acad Sci USA 1995 92(20):9363-7). […] Therefore, in addition to Compound A A549 cells were also treated with doxorubicin as an experimental control.

Where [10] appears, read: Homo sapiens, THP-1, THP-1 cells.

Take `COC(=O)[C@H]1[C@@H](O)[C@@]2(O)c3c(OC)cc(OC4OC(C(O)CO)COC4OC)cc3O[C@@]2(c2ccc(OC)cc2)[C@@H]1c1ccccc1` (single isomer, unassigned) [Compound A]: the IC50 was 60 nM in data set [1]; 30 nM in the data set on THP-1 cells [2] (THP-1, 18 h, THP-1 cells, 18 hours of culture, read-out: IC50 WST-1 Reduction); 2 nM in the data set with THP-1 cells [2] (THP-1, 72 h, THP-1 leukemic cells, cultured with compound for 3 days, read-out: IC50 (reduction of WST-1)); approximately 30 nM in the data set on THP-1 cells [3] (setting [10]); 27 nM in the data set with THP-1 cells [3] (THP-1 cells); approximately 70 nM in the data set on THP-1 cells [4] (setting [10]). In addition, the IC50 in the data set on THP-1 cells [4] (THP-1 cells) was 72 nM. The CC50 was 15 nM with A549 (A549, 6 days, read-out: LC50 (6 day cultures)); 914 nM with A549 (Homo sapiens, A549, 72 h, A549, 3 days, read-out: LC50 (3 day cultures)); 21 nM with A549 (Homo sapiens, A549, 144 h, A549, 6 days, read-out: LC50 (6 day cultures)); more than 1000 nM in the data set with K562 (Homo sapiens, K562, 72 h, K562, 3 days, read-out: LC50 (3 day cultures)); 10 nM in the data set with K562 (Homo sapiens, K562, 144 h, K562, 6 days, read-out: LC50 (6 day cultures)); 12 nM with K562 (K562, 6 days, read-out: LC50 (6 day cultures)). Moreover, the CC50 is 18 nM in the data set on PC3 (PC-3, 72 h, PC3, 3 days, read-out: LC50 (3 day cultures)); 12 nM in the data set with PC3 (PC-3, 144 h, PC3, 6 days, read-out: LC50 (6 day cultures)); 461 nM in the data set with SF268; 36 nM in the data set with THP-1; 514 nM in the data set with A549 cells [6]; 15 nM with THP-1 cells [7]. Further, the GI50 in data set [5] lay in the range of 1 to 7 nM. Further, the “morphology (macrophage differentiation)” value in data set [8] is “accumulation of cells that adhered to the plastic and exhibited numerous pseudopodia”. The SA-β-gal activity entry with A549 cells [9] was “failed to induce SA-β-gal activity”.
